Reference: ChEMBL document CHEMBL1201862, “PubChem BioAssay data set” (2004)
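Values below derive from 48-hour exposures of cells grown in 96-well plates, with endpoints linearly interpolated between the two concentrations bracketing the appropriate inhibition level. GI50 is the concentration that inhibits growth by half.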 Active and inactive are the calls of the source. No stated cut-off is given here; in the data, active = GI50 up to about 1.1 µM and inactive = higher.

What was measured:
Assay in all cases: NCI anticancer screen, dose series, 48 h
[1] = test system: A498
[2] = test system: A549
[3] = test system: CAKI-1
[4] = test system: CCRF-CEM
[5] = test system: COLO 205
[6] = test system: DLD-1
[7] = test system: DMS-114
[8] = test system: DMS-273
[9] = test system: EKVX
[10] = test system: HCC 2998
[11] = test system: HCT-116
[12] = test system: HCT-15
[13] = test system: HL-60
[14] = test system: HOP-18
[15] = test system: HOP-62
[16] = test system: HOP-92
[17] = test system: HT-29
[18] = test system: IGROV-1
[19] = test system: K562
[20] = test system: KM-20L2
[21] = test system: KM12
[22] = test system: LOX IMVI
[23] = test system: M19-MEL
[24] = test system: MCF7
[25] = test system: MOLT-4
[26] = test system: Malme-3M
[27] = test system: NCI-H226
[28] = test system: NCI-H23
[29] = test system: NCI-H460
[30] = test system: NCI-H522
[31] = test system: NCI/ADR-RES
[32] = test system: OVCAR-3
[33] = test system: OVCAR-4
[34] = test system: OVCAR-5
[35] = test system: OVCAR-8
[36] = test system: RPMI-8226
[37] = test system: RXF 393
[38] = test system: SF-268
[39] = test system: SF-295
[40] = test system: SF-539
[41] = test system: SK-MEL-28
[42] = test system: SK-MEL-2
[43] = test system: SK-MEL-5
[44] = test system: SK-OV-3
[45] = test system: SN12C
[46] = test system: SNB-19
[47] = test system: SNB-75
[48] = test system: SNB-78
[49] = test system: SW-620
[50] = test system: U-251
[51] = test system: UACC-257
[52] = test system: UACC-62
[53] = test system: UO-31
[54] = test system: XF498
[55] = test system: 786-0
[56] = test system: ACHN
[57] = test system: LXFL 529
[58] = test system: M14
[59] = test system: SR
[60] = test system: TK-10

Structure (SMILES): CC(=O)C(=Cc1cn(C)c(=O)n(C)c1=O)C(C)=O
- GI50 [1]: 101 µM (inactive)
- GI50 [2]: 157 µM (inactive)
- GI50 [3]: 83 µM (inactive)
- GI50 [4]: 49.4 µM (inactive)
- GI50 [5]: 80.9 µM (inactive)
- GI50 [6]: 94.8 µM (inactive)
- GI50 [7]: 88.9 µM (inactive)
- GI50 [8]: 98.6 µM (inactive)
- GI50 [9]: 121 µM (inactive)
- GI50 [10]: 122 µM (inactive)
- GI50 [11]: 87.5 µM (inactive)
- GI50 [12]: 94 µM
- GI50 [13]: 84.3 µM (inactive)
- GI50 [14]: 160 µM (inactive)
- GI50 [15]: 137 µM (inactive)
- GI50 [16]: 2.62 µM (inactive)
- GI50 [17]: 113 µM (inactive)
- GI50 [18]: 150 µM (inactive)
- GI50 [19]: 138 µM (inactive)
- GI50 [20]: 85.7 µM (inactive)
- GI50 [21]: 85.1 µM (inactive)
- GI50 [22]: 71.1 µM (inactive)
- GI50 [23]: 109 µM (inactive)
- GI50 [24]: 159 µM (inactive)
- GI50 [25]: 119 µM (inactive)
- GI50 [26]: 83 µM (inactive)
- GI50 [27]: 116 µM (inactive)
- GI50 [28]: 69.5 µM (inactive)
- GI50 [29]: 92.3 µM (inactive)
- GI50 [30]: 16.8 µM (inactive)
- GI50 [31]: 93.1 µM (inactive)
- GI50 [32]: 116 µM (inactive)
- GI50 [33]: 105 µM (inactive)
- GI50 [34]: 97.7 µM (inactive)
- GI50 [35]: 126 µM (inactive)
- GI50 [36]: 89.9 µM (inactive)
- GI50 [37]: 60.1 µM (inactive)
- GI50 [38]: 148 µM (inactive)
- GI50 [39]: 107 µM (inactive)
- GI50 [40]: 103 µM (inactive)
- GI50 [41]: 100 µM (inactive)
- GI50 [42]: 106 µM (inactive)
- GI50 [43]: 86.9 µM (inactive)
- GI50 [44]: 99.8 µM (inactive)
- GI50 [45]: 99.1 µM (inactive)
- GI50 [46]: 125 µM (inactive)
- GI50 [47]: 65 µM (inactive)
- GI50 [48]: 214 µM (inactive)
- GI50 [49]: 106 µM (inactive)
- GI50 [50]: > 96.8 µM (inactive)
- GI50 [51]: 85.9 µM (inactive)
- GI50 [52]: 75.9 µM (inactive)
- GI50 [53]: 83.8 µM (inactive)
- GI50 [54]: 37.8 µM (inactive)

Structure (SMILES): Cc1ccccc1C(=O)c1c(O)c2c(c(O)c1Br)CCCC2
- GI50 [55]: 14.5 µM (inactive)
- GI50 [1]: 22.1 µM (inactive)
- GI50 [2]: 23.2 µM (inactive)
- GI50 [56]: 17.9 µM (inactive)
- GI50 [3]: 20.1 µM (inactive)
- GI50 [5]: 18.9 µM (inactive)
- GI50 [6]: 23 µM (inactive)
- GI50 [7]: 13.6 µM (inactive)
- GI50 [8]: 17.6 µM (inactive)
- GI50 [9]: 17.6 µM (inactive)
- GI50 [10]: 19.5 µM (inactive)
- GI50 [11]: 16.6 µM (inactive)
- GI50 [12]: 16.7 µM
- GI50 [13]: 5.07 µM (inactive)
- GI50 [14]: 12.5 µM (inactive)
- GI50 [15]: 37.2 µM (inactive)
- GI50 [16]: 23.2 µM (inactive)
- GI50 [17]: 27.9 µM (inactive)
- GI50 [18]: 20.7 µM (inactive)
- GI50 [19]: 21.1 µM (inactive)
- GI50 [20]: 19.4 µM (inactive)
- GI50 [21]: 16.6 µM (inactive)
- GI50 [57]: 13 µM (inactive)
- GI50 [58]: 14 µM (inactive)
- GI50 [23]: 15.6 µM (inactive)
- GI50 [25]: 6.14 µM (inactive)
- GI50 [26]: 11.5 µM (inactive)
- GI50 [27]: 25.4 µM (inactive)
- GI50 [28]: 26.2 µM (inactive)
- GI50 [29]: 22 µM (inactive)
- GI50 [30]: 10.5 µM (inactive)
- GI50 [32]: 13.8 µM (inactive)
- GI50 [33]: 14.9 µM (inactive)
- GI50 [34]: 20 µM (inactive)
- GI50 [35]: 17.3 µM (inactive)
- GI50 [36]: 20.1 µM (inactive)
- GI50 [37]: 18.7 µM (inactive)
- GI50 [38]: 15 µM (inactive)
- GI50 [39]: 21.2 µM (inactive)
- GI50 [40]: 18.5 µM (inactive)
- GI50 [42]: 16.7 µM (inactive)
- GI50 [43]: 18.5 µM (inactive)
- GI50 [44]: 21.8 µM (inactive)
- GI50 [45]: 18.1 µM (inactive)
- GI50 [46]: 23 µM (inactive)
- GI50 [47]: 18.7 µM (inactive)
- GI50 [48]: 21.5 µM (inactive)
- GI50 [59]: 16.2 µM (inactive)
- GI50 [49]: 18.7 µM (inactive)
- GI50 [60]: 17.8 µM (inactive)
- GI50 [50]: 16.7 µM (inactive)
- GI50 [51]: 14.7 µM (inactive)
- GI50 [52]: 15.1 µM (inactive)
- GI50 [53]: 17.5 µM (inactive)
- GI50 [54]: 21.7 µM (inactive)

Structure (SMILES): C=C1CCC23CC(CC[C@@H]2[C@@]12C[C@@H](c1ccoc1)OC2=O)OC3=O (some centres not stated)
- GI50 [55]: > 100 µM (inactive)
- GI50 [1]: > 100 µM (inactive)
- GI50 [2]: > 100 µM (inactive)
- GI50 [56]: > 100 µM (inactive)
- GI50 [3]: > 100 µM (inactive)
- GI50 [4]: 63 µM (inactive)
- GI50 [5]: > 100 µM (inactive)
- GI50 [6]: > 100 µM (inactive)
- GI50 [7]: > 100 µM (inactive)
- GI50 [8]: > 100 µM (inactive)
- GI50 [9]: > 100 µM (inactive)
- GI50 [10]: > 100 µM (inactive)
- GI50 [11]: > 100 µM (inactive)
- GI50 [12]: > 100 µM
- GI50 [13]: > 100 µM (inactive)
- GI50 [14]: > 100 µM (inactive)
- GI50 [15]: > 100 µM (inactive)
- GI50 [16]: > 100 µM (inactive)
- GI50 [17]: > 100 µM (inactive)
- GI50 [18]: > 100 µM (inactive)
- GI50 [19]: > 100 µM (inactive)
- GI50 [20]: > 100 µM (inactive)
- GI50 [21]: > 100 µM (inactive)
- GI50 [57]: > 100 µM (inactive)
- GI50 [58]: > 100 µM (inactive)
- GI50 [23]: > 100 µM (inactive)
- GI50 [25]: > 100 µM (inactive)
- GI50 [26]: > 100 µM (inactive)
- GI50 [27]: > 100 µM (inactive)
- GI50 [28]: > 100 µM (inactive)
- GI50 [29]: > 100 µM (inactive)
- GI50 [30]: > 100 µM (inactive)
- GI50 [32]: > 100 µM (inactive)
- GI50 [33]: > 100 µM (inactive)
- GI50 [34]: > 100 µM (inactive)
- GI50 [35]: > 100 µM (inactive)
- GI50 [36]: > 100 µM (inactive)
- GI50 [38]: > 100 µM (inactive)
- GI50 [39]: > 100 µM (inactive)
- GI50 [40]: > 100 µM (inactive)
- GI50 [42]: > 100 µM (inactive)
- GI50 [43]: > 100 µM (inactive)
- GI50 [44]: > 100 µM (inactive)
- GI50 [45]: > 100 µM (inactive)
- GI50 [46]: > 100 µM (inactive)
- GI50 [48]: > 100 µM (inactive)
- GI50 [49]: > 100 µM (inactive)
- GI50 [60]: > 100 µM (inactive)
- GI50 [50]: > 100 µM (inactive)
- GI50 [51]: > 100 µM (inactive)
- GI50 [52]: > 100 µM (inactive)
- GI50 [53]: > 100 µM (inactive)
- GI50 [54]: > 100 µM (inactive)
